Patent US9840532B2, “5′-substituted nucleoside compounds” (Eli Lilly and Company, priority 2015, dated 2017)

These compounds were tested on MDM4 and SmD1-me2S (assay: Mouse A375 Tumor Xenograft MDM4 and SmD1-me2S Western Blot Assay). Details: A-375, PO given QD or BID, tumors 4 hr after last dose, 4 days of dosing, read-out: dose achieving 50% effect (ED50).
Format: in vivo
Protocol: Grow A375 cells in medium (DMEM high glucose/10% Hi FBS) at 37° C. in an incubator (5% CO2) for 18-24 hr. Mix the cells with MATRIGEL® (1:1) and implant the cells (5×10^6/animal) subcutaneously into the rear flank of the mice (female nude mice, Harlan). The implanted tumor cells grow as solid tumors. Measure the tumor volume and body weight twice a week with a caliper. After tumor volume reaches approximately 200-250 mm^3 (about 20 days after implant), randomize the animals, and group them into compound treatment groups. Administer the test compounds (formulated in SWFI with 1% HEC/0.25% TWEEN® 80/0.05% Antifoam) by oral gavage. Test compound doses are in the range of 3 to 100 mg/kg. Sacrifice mice 4 hr after the last dose (4 days of dosing).
Mouse A375 Tumor Xenograft MDM4 and SmD1-me2S Western Blot Assay
For western blotting, homogenize the tumor tissues as performed above in 500 μL of kit XY lysis buffer including protease inhibitor cocktail complete Mini (Roche, cat. #: 11 836 170 001) [this cocktail contains […] Trypsin-Chymotrypsin Inhibitor (Sigma cat. # T9777); 10 μg/mL TPCK (Sigma cat. # T4376); 10 μg/mL Aprotinin (Sigma cat. # A1153); 60 mM Beta-Glycerophosphate disodium salt hydrate (Sigma cat. # G9891); 1% TRITON™ X-100 (Sigma cat. # T9284); 25 mM Tris pH ˜7.5 (INVITROGEN™ cat. #15567-027); 2.5 mM sodium pyrophosphate dibasic (Fluka cat. #71501); 300 mM […] (Mallinckrodt cat. #7581); 2 mM TAME (Sigma cat. # T4626); 15 mM pNPP (pNPP disodium salt hexahydrate, Sigma cat. #P4744); 5 mM benzamidine hydrochloride hydrate (Sigma cat. #B6506); 10 mM sodium fluoride (Sigma cat. #S-7920); 1 mM sodium metavanadate anhydrous (Sigma cat. #59088); […]. 1 mM DTT (Sigma cat. # D9779); 15 mM EDTA pH ˜8.0 (INVITROGEN™ cat. #15575020); 5 mM EGTA pH ˜8.0 (Sigma cat. #E3889); […] (Fisher/Axxora cat. # A350012m001); 0.25 mM Pefa Bloc (Sigma cat. #76307). Spin the protein lysates down at 8,000 rpm for 10 min and transfer supernatants to 1.5 mL tubes for sonication (amplitude 25% yield) for 15 seconds. […]
Work on `Nc1ncnc2c1ccn2[C@@H]1O[C@H]([C@H](O)c2ccc(Cl)cc2)[C@@H](O)[C@H]1O` [Example 1, (2R,3R,4S,5R)-2-(4-Aminopyrrolo[2,3-d]pyrimidin-7-yl)-5-[(R)-(4-chlorophenyl)-hydroxy-methyl]tetrahydrofuran-3,4-diol] yielded an ED50 of no more than 30 mg/kg.
For `C[C@@](O)(c1ccc(Cl)cc1)[C@H]1O[C@@H](n2ccc3c(N)ncnc32)[C@H](O)[C@@H]1O` [Example 3, (2R,3R,4S,5S)-2-(4-Aminopyrrolo[2,3-d]pyrimidin-7-yl)-5-[(1R)-1-(4-chlorophenyl)-1-hydroxy-ethyl]tetrahydrofuran-3,4-diol], the ED50 was no more than 30 mg/kg.
In the case of `Nc1ncnc2c1ccn2[C@@H]1O[C@H]([C@H](O)c2ccccc2)[C@@H](O)[C@H]1O` [Example 2, (2R,3R,4S,5R)-2-(4-Aminopyrrolo[2,3-d]pyrimidin-7-yl)-5[(R)-hydroxy(phenyl)methyl]tetrahydrofuran-3,4-diol], the ED50 was no more than 30 mg/kg.
